For orientation: pKa means the negative logarithm of the acid dissociation constant.

Structures are written as SMILES.

Data set [1] in a line: physchem.
Data set [2] in a line: physchem. The source holds these as a separate data set.
The nature of data set [3]: physchem. The source holds these as a separate data set.

Turning to `CN/C(=C/[N+](=O)[O-])NCCSCc1ccc(CN(C)C)o1`, the pKa in the data set “physchem [1]” stood at 8.47; in the data set “physchem [2]”, 9.6. The compound `CN(C)[C@@H]1C(=O)C(C(N)=O)=C(O)[C@@]2(O)C(O)=C3C(=O)c4c(O)cccc4[C@@](C)(O)C3[C@H](O)C12` (stereo partly specified) had a pKa in the data set “physchem [3]” of 7.32. Consider `CCCCCCCC(=O)OC(CC(=O)[O-])C[N+](C)(C)C` (stereo unspecified), for which the pKa in “physchem [3]” was found to be 3.6. For `CCCCCCCCCC(=O)OC(CC(=O)[O-])C[N+](C)(C)C` (stereo unspecified), the pKa in “physchem [3]” worked out at 3.65. The same measure, in the same setting: the same measure for `Nc1ccc(C(=O)O)cc1` [AMINOBENZOIC ACID]: 4.87.

For the compound `Nc1ccc(C(=O)O)c(O)c1` [AMINOSALICYLIC ACID], the figures for the pKa in “physchem [1]” (pKa) and in the data set “physchem [2]” were 3.62 and 3.4, respectively. For `CCN1CCCC1CNC(=O)c1cc(S(=O)(=O)CC)c(N)cc1OC` (stereo unspecified) [AMISULPRIDE] the same measures were 9.37 and 9.3. The matching figures for `CCCCNc1cc(C(=O)O)cc(S(N)(=O)=O)c1Oc1ccccc1` [BUMETANIDE]: 3.83 and 3.6. For `CC(NC(C)(C)C)C(=O)c1cccc(Cl)c1` (stereo unspecified) [BUPROPION], the pKa in the data set “physchem [1]” was 8.35.

In “physchem [3]”, `CCCC(=O)OC(CC(=O)[O-])C[N+](C)(C)C` (stereo unspecified) [Butyryl-carnitine] had a pKa of 3.56. For `CN(C)CC/C=C1\c2ccccc2COc2ccccc21` [E-DOXEPIN], the pKa stood at 9 in “physchem [1]” (pKa) and 8.7 in “physchem [2]”.

On to `CN1CCN(c2c(F)cc3c(=O)c(C(=O)O)cn(CCF)c3c2F)CC1` [FLEROXACIN], for which the pKa is 8.8 in “physchem [1]” (pKa) and 5.5 in the data set “physchem [2]”. The matching figures for `COc1c(N2CCNC(C)C2)c(F)cc2c(=O)c(C(=O)O)cn(C3CC3)c12` (stereo unspecified) [GATIFLOXACIN]: 8.74 and 9.4.

In “physchem [3]”, `Cc1ncc(CO)c(CN)c1O` [PYRIDOXAMINE] displayed a pKa of 10.3.

Values taken from ChEMBL document CHEMBL2448811, “Comparison of the accuracy of experimental and predicted pKa values of basic and acidic compounds” (Pharm Res, 2013).
